# From patent US20140113945A1, “Novel Pyrrole Inhibitors of S-Nitrosoglutathione Reductase as Therapeutic Agents for Liver Toxicity” (priority 2011, published 2014)
# Read-outs that look alike come from different tables or passages of the source. Marks after values point to notes of the source that are not given here.
# System: acetaminophen (APAP) induced liver toxicity
# Conditions: for mean ALT / mean AST / increase in ALT compared to control saline group / increase in AST compared to control saline group / reduction in ALT compared to APAP only / reduction in AST compared to APAP only: mice; for mean ALT / mean AST: substance IV + APAP 300 mg/kg PO; for increase in ALT compared to control saline group / increase in AST compared to control saline group / reduction in ALT compared to APAP only / reduction in AST compared to APAP only: substance IV after APAP 300 mg/kg PO, 24-hour; for Alkaline phosphatase (ALK) levels: mouse, in vivo
SMILES,mean ALT (24-hours post-APAP),mean AST (24-hours post-APAP),mean ALT (72-hours post-APAP),mean AST (72-hours post-APAP),mean ALT (6 hours post-APAP),mean AST (6 hours post-APAP),increase in ALT compared to control saline group [fold],increase in AST compared to control saline group [fold],reduction in ALT compared to APAP only [%],reduction in AST compared to APAP only [%],Alkaline phosphatase (ALK) levels
Cc1cc(C(N)=O)ccc1-n1c(CCC(=O)O)ccc1-c1ccc(Cl)cc1O [Compound 41],4749.4,3783.6,97.6,492.6,3608.0,3741.2,43,29,23,34,did not significantly differ from normal controls
"N[C@@H](CCC(=O)N[C@@H](CSN=O)C(=O)NCC(=O)O)C(=O)O [GSNO, S-nitrosoglutathione]",1454.3,518.0*,31.8*,55.0*,571.8*,484.5*,~5,~4,76,91,did not significantly differ from normal controls
